The target of this experiment is T1, human β-Secretase (Homo sapiens, UniProt P56817).
T1 construct: soluble part of the human β-Secretase (AA 1-AA 460); Fc domain of IgG1; made in house
The experiment can be described thus: TR-FRET assay (β-secretase enzyme, sBACE-Fc). It is filed as biochemical. Conditions: soluble human β-secretase (sBACE-Fc), substrate (Europium)[…](Qsy7) 100 nM, pH4.5; read-out: IC50 in TR-FRET assay. As for the experimental part:
The β-secretase enzyme used in the TR-FRET is prepared as follows:
The cDNA for the soluble part of the human β-Secretase (AA 1-AA 460) was cloned using the ASP2-Fc10-1-IRES-GFP-neoK mammalian expression vector. The gene was fused to the Fc domain of IgG1 (affinity tag) and stably cloned into HEK 293 cells.
The robotic systems Biomek FX and Velocity 11 were used for all liquid handling and the enzyme and substrate solutions were kept on ice until they were placed in the robotic system. Enzyme (9 μl) was added to the plate then 1 μl of compound in dimethylsulphoxide was added, mixed and pre-incubated for 10 minutes. Substrate (10 μl) was then added, mixed and the reaction proceeded for 15 minutes at room temperature. The reaction was stopped with the addition of Stop solution (7 μl, NaAcetate, pH 9). […] The dimethylsulphoxide control, instead of test compound, defined the 100% activity level and 0% activity was defined by wells lacking enzyme (replaced with reaction buffer).
On the technique in general: In TR-FRET formats the signal depends on donor and acceptor labels being close together.

Structures can show the parent of a compound that is named as a salt.

T1 sequence (P56817 22-460): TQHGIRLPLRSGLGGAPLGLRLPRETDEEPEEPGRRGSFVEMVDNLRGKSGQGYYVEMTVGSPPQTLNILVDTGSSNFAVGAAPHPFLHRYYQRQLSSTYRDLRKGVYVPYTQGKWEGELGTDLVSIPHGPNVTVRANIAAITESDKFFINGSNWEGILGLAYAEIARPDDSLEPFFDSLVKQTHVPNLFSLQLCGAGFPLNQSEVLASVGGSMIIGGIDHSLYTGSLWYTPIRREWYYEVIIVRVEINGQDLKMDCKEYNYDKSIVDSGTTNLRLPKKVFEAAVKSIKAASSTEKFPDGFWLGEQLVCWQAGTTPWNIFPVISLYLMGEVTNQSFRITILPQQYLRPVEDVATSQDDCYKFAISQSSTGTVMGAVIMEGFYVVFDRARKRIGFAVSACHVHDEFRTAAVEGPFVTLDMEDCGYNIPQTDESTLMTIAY

As usually defined, the IC50 is the point on the concentration scale where inhibition reaches its midpoint. Turning to `NC1=NC(c2cccc(-c3cnccn3)c2)(c2ccnc(C3CC3)c2)c2cccc(F)c21` (centres unmarked) [Example 37, 1-(2-Cyclopropylpyridin-4-yl)-4-fluoro-1-(3-(pyrazin-2-yl)phenyl)-1H-isoindol-3-amine trifluoroacetate], the IC50 stood at 87 nM.

With `COc1ccnc(-c2cccc(C3(c4ccnc(OC)c4)N=C(N)c4c(F)cccc43)c2)c1` (centres unmarked) [Example 38, 4-Fluoro-1-(3-(4-methoxypyridin-2-yl)phenyl)-1-(2-methoxypyridin-4-yl)-1H-isoindol-3-amine], the IC50 was 430 nM. Then `COc1cc(C2(c3cccc(-c4cc(C#N)ccn4)c3)N=C(N)c3c(F)cccc32)ccn1` (centres unmarked) [Example 39, 2-(3-(3-Amino-4-fluoro-1-(2-methoxypyridin-4-yl)-1H-isoindol-1-yl)phenyl)isonicotinonitrile], with 1100 nM; and `NC1=NC(c2ccnc(-c3cncnc3)c2)(c2ccnc(C(F)F)c2)c2cccc(F)c21` (centres unmarked) [Example 42, 1-(2-(Difluoromethyl)pyridin-4-yl)-4-fluoro-1-(2-(pyrimidin-5-yl)pyridin-4-yl)-1H-isoindol-3-amine], with 310 nM. As for `COc1ccc(C2(c3cccc(-c4cncnc4)c3)N=C(N)c3c(F)cccc32)cc1C#N` (centres unmarked) [Example 43, 5-(3-Amino-4-fluoro-1-(3-(pyrimidin-5-yl)phenyl)-1H-isoindol-1-yl)-2-methoxybenzonitrile], the 50% inhibitory concentration (IC50) was 560 nM. Then `COc1c(C)cc(C2(c3cccc(-c4cncnc4)c3)N=C(N)c3c(F)cccc32)nc1C` (centres unmarked) [Example 44, 4-Fluoro-1-(5-methoxy-4,6-dimethylpyridin-2-yl)-1-(3-(pyrimidin-5-yl)phenyl)-1H-isoindol-3-amine], with 79 nM. In the case of `Cc1cc(C2(c3cccc(-c4cncnc4)c3)N=C(N)c3c(F)cccc32)nc(C)n1` (centres unmarked) [Example 45, 1-(2,6-Dimethylpyrimidin-4-yl)-4-fluoro-1-(3-(pyrimidin-5-yl)phenyl)-1H-isoindol-3-amine] it was 270 nM. In the case of `COc1cc(C2(c3cccc(-c4cncnc4)c3)N=C(N)c3c(F)cccc32)cc(F)c1F` (centres unmarked) [Example 46, 1-(3,4-Difluoro-5-methoxyphenyl)-4-fluoro-1-(3-(pyrimidin-5-yl)phenyl)-1H-isoindol-3-amine] it was 690 nM; in that of `COc1c(C)cc(C2(c3cccc(-c4cncnc4)c3)N=C(N)c3c(F)cccc32)cc1CC#N` (centres unmarked) [Example 47, 2-(5-(3-Amino-4-fluoro-1-(3-(pyrimidin-5-yl)phenyl)-1H-isoindol-1-yl)-2-methoxy-3-methylphenyl) acetonitrile], 83 nM; in that of `COc1cc(C2(c3cccc(-c4cncnc4)c3)N=C(N)c3c(F)cccc32)ccc1F` (centres unmarked) [Example 48, 4-Fluoro-1-(4-fluoro-3-methoxyphenyl)-1-(3-(pyrimidin-5-yl)phenyl)-1H-isoindol-3-amine], 350 nM.

In the case of `COc1ncc(C2(c3cccc(-c4cncnc4)c3)N=C(N)c3c(F)cccc32)cc1C(F)(F)F` (centres unmarked) [Example 49, 4-Fluoro-1-(6-methoxy-5-(trifluoromethyl)pyridin-3-yl)-1-(3-(pyrimidin-5-yl)phenyl)-1 H-isoindol-3-amine], the IC50 was 600 nM. Then `NC1=NC(c2ccnc(C(F)(F)F)c2)(c2ccc(O)c(-c3cnccn3)c2)c2cccc(F)c21` (centres unmarked) [Example 50, 4-(3-Amino-4-fluoro-1-(2-(trifluoromethyl)pyridin-4-yl)-1H-isoindol-1-yl)-2-(pyrazin-2-yl)phenol], with 420 nM. Then `COc1ccc(C2(c3ccnc(C(F)(F)F)c3)N=C(N)c3c(F)cccc32)cc1-c1cncnc1` (centres unmarked) [Example 51, 4-Fluoro-1-(4-methoxy-3-(pyrimidin-5-yl)phenyl)-1-(2-(trifluoromethyl)pyridin-4-yl)-1H-isoindol-3-amine], with 5600 nM; and `NC1=NC(c2ccnc(-c3cncnc3)c2)(c2ccnc(C3CC3)c2)c2cccc(F)c21` (centres unmarked) [Example 52, 1-(2-Cyclopropylpyridin-4-yl)-4-fluoro-1-(2-(pyrimidin-5-yl)pyridin-4-yl)-1H-isoindol-3-amine], with 690 nM.

(Values after patent US8030500B2, “Substituted isoindoles for the treatment and/or prevention of Aβ- related pathologies” (AstraZeneca AB, priority 2008, dated 2011).)
